The values below are quoted from earlier work in paper PMC3734799 (ChemMedChem, 2011).

The data set concerns the target YopH (Yersinia pestis, UniProt O68720).

YopH, sequence (O68720 164-468 limits assumed): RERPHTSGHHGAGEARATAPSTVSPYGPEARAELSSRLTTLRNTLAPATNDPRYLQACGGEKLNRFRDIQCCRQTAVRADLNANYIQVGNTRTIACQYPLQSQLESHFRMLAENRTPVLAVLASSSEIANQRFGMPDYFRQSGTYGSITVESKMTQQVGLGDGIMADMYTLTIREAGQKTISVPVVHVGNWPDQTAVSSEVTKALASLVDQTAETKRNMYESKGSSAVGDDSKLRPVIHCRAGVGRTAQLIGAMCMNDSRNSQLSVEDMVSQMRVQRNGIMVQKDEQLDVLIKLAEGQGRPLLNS

One may read the Km as the concentration of substrate that gives half-maximal velocity. Regarding `O=[N+]([O-])c1ccc(OP(=O)(O)O)cc1-c1ccccc1` [compound 1, 6-nitro-[1,1'-biphenyl]-3-yl dihydrogen phosphate], the Km is 80 µM.
